From paper PMC1175996, “Guanine-nucleotide exchange on ribosome-bound elongation factor G initiates the translocation of tRNAs” (Journal of Biology, 2005)

Tests used:
[1] = molecular target: T1, EF-G (free elongation factor G) (Escherichia coli, UniProt P0A6M8); assay: nitrocellulose filtration, chase of [3H]-GDP by purified unlabelled GTP; format: binding; conditions: read-out: KGTP
T1 construct: gene fusA; purified EF-G, free in solution (no ribosome)

[2] = molecular target: T2, EF-G on 70S ribosome complexes (preT / postTerm) (Escherichia coli, UniProt P0A6M8); assay: translocation rate by RF2-dependent fMet-Ile release, EF-G recycling; format: biochemical; conditions: read-out: I50
T2 construct: gene fusA

[3] = molecular target: T1, EF-G (free elongation factor G); assay: nitrocellulose filtration, Scatchard plot; format: binding
[4] = molecular target: T2, EF-G on 70S ribosome complexes (preT / postTerm); assay: nitrocellulose filtration of ribosome-bound EF-G•[3H]-GDPNP; format: binding; conditions: labelled compound; 2 μM EF-G; 92 nM postTerm or naked 70S ribosomes; 1 μM [3H]-GDPNP; 37°C

T1 sequence (P0A6M8 2-704): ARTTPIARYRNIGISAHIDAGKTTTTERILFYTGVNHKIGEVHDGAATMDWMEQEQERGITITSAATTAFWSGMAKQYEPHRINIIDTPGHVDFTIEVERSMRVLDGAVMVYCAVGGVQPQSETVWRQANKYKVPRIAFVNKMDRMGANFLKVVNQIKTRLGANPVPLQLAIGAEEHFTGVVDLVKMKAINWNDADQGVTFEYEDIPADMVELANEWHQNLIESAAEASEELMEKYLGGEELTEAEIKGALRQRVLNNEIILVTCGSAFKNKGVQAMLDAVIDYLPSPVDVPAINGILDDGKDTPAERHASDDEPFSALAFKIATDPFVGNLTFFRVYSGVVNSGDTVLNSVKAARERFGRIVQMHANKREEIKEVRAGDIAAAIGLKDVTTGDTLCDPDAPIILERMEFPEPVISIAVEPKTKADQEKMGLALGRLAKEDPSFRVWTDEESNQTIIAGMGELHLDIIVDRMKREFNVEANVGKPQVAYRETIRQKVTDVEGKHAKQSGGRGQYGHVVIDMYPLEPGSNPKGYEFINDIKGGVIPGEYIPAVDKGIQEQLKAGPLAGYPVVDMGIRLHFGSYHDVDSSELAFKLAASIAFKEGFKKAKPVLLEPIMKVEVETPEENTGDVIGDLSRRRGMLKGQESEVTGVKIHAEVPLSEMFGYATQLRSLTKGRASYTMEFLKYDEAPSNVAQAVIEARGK
T2 sequence (P0A6M8 2-704, one chain of several): as the sequence (P0A6M8 2-704) above

Work on `Nc1nc2c(ncn2[C@@H]2O[C@H](COP(=O)(O)OP(=O)(O)OP(=O)(O)O)[C@@H](O)[C@H]2O)c(=O)[nH]1` [GTP] yielded a Kd [1] greater than 600 µM.
`Nc1nc2c(ncn2[C@@H]2O[C@H](COP(=O)(O)OP(=O)(O)O)[C@@H](O)[C@H]2O)c(=O)[nH]1` [GDP] was tested, and the IC50 [2] was 250 µM and the Kd [3] was roughly 9 µM.
`Nc1nc2c(ncn2[C@@H]2O[C@H](COP(=O)(O)OP(=O)(O)NP(=O)(O)O)[C@@H](O)[C@H]2O)c(=O)[nH]1` [GDPNP] was tested, and the “nitrocellulose filtration of ribosome-bound EF-G•[3H]-GDPNP” value [4] was “EF-G, bound to either type of ribosome, had much higher affinity for GDPNP than for GDP”.
